In patent US9353089B2, “Compositions and methods for the treatment of malaria” (Saint Louis University, priority 2013, dated 2016):
pIC50: −log10 of the molar value.

What follows are molecules tested on Plasmodium falciparum 3D7 (CQ-sensitive) (assay: In vitro antimalarial assay (malaria SYBR Green I-based fluorescence, MSF), 3D7). Conditions: 3D7, 72 h, read-out: 3D7 % inh @ 1 μM.
Assay type: cell-based
Procedure: Stock solutions of each test drug were prepared in DMSO at a concentration of 20 mM. The drug solutions were serially diluted with culture medium and distributed to asynchronous parasite cultures on 96-well plates in quadruplicate in a total volume of 100 μL to achieve 0.5% parasitemia with a 2% hematocrit in a total volume of 100 pt. […] After incubation, 100 μL of lysis buffer with 0.2 μL/mL SYBR Green I was added to each well.
Antimalarial potency of compounds was determined by this technique for both Plasmodium falciparum 3D7 (CQ-sensitive) and Dd2 (multi-drug resistant) strains.
For `CC(C)COc1cccc(C2(c3cccc(-c4cccnc4)c3)NC(=N)N(C3CCOCC3)C2=O)c1` (stereo not shown) [Example 404, 2-imino-5-(3-isobutoxyphenyl)-5-(3-(pyridin-3-yl)phenyl)-3-(tetrahydro-2H-pyran-4-yl)imidazolidin-4-one], the inhibition of growth at 1 µM was 7%.

Same assay, conditions: 3D7, Table 11, read-out: Pf 3D7 IC50
For `Cc1cccc(C2(c3cccc(C)c3)NC(=N)N(C3CCCCC3)C2=O)c1` [Example 237, 3-cyclohexyl-2-imino-5,5-bis(3-methylphenyl)-imidazolidin-4-one], the pIC50 was 6.27. Work on `N=C1NC(c2ccccc2)(c2cccc(Oc3ccccc3)c2)C(=O)N1C1CCCCC1` (stereo not shown) [Example 238, 3-cyclohexyl-2-imino-5-(3-phenoxyphenyl)-5-phenylimidazolidin-4-one] yielded a pIC50 of 6.37. `COc1cccc(C2(c3cccc(-c4ccncc4)c3)NC(=N)N(C3CCCCC3)C2=O)c1` (stereo not shown) [Example 225, 3-cyclohexyl-2-imino-5-(3-methoxy-phenyl)-5-[3-(pyridin-4-yl)phenyl]imidazolidin-4-one] gave a pIC50 of 6.50. `N=C1NC(c2cccc(-c3cccnc3)c2)(c2cccc(-c3cccnc3)c2)C(=O)N1C1CCCCC1` [Example 269, 3-cyclohexyl-2-imino-5,5-bis[3-(pyridin-3-yl)phenyl]imidazolidin-4-one] was tested, and the pIC50 was 6.14.

Same assay, conditions: 3D7, Table 13, read-out: 3D7 IC50
With `COc1ccc(C2(c3ccc(OC)cc3)NC(=N)N(C3CCN(Cc4ccccc4)CC3)C2=O)cc1` [Example 250, 3-(1-benzylpiperidin-4-yl)-2-imino-5,5-bis(4-methoxyphenyl)-imidazolidin-4-one] the pIC50 was 5.56. `Cc1cccc(C2(c3cccc(C)c3)NC(=N)N(C3CCCCC3)C2=O)c1` [Example 237, 3-cyclohexyl-2-imino-5,5-bis(3-methylphenyl)-imidazolidin-4-one] gave a pIC50 of 6.27. In the case of `COc1ccc(C2(c3ccc(OC)cc3)NC(=N)N(Cc3ccc(Cl)cc3)C2=O)cc1` [Example 232, 3-[(4-chlorophenyl)-methyl]-2-imino-5,5-bis(4-methoxyphenyl)-imidazolidin-4-one], the pIC50 was 5.90. Molecule `COc1ccc(C2(c3ccc(OC)cc3)NC(=N)N(Cc3ccccc3Br)C2=O)cc1` [Example 307, 3-[(2-bromophenyl)-methyl]-2-imino-5,5-bis(4-methoxy-phenyl)imidazolidin-4-one] has a pIC50 of 5.25. With `N=C1NC(c2ccccc2Cl)(C2CC2)C(=O)N1C1CCOCC1` (stereo not shown) [Example 500, 5-(2-chlorphenyl)-5-cyclopropyl-2-imino-3-(tetrahydro-2H-pyran-4-yl)imidazolidin-4-one] the pIC50 was 5.63. Work on `COc1ccc(C2(c3ccc(OC)cc3)NC(=N)N(Cc3cccc(OC)c3)C2=O)cc1` [Example 236, 2-imino-5,5-bis(4-methoxyphenyl)-3-[(3-methoxyphenyl)-methyl]imidazolidin-4-one] yielded a pIC50 of 6.15. `COc1ccc(C2(c3ccc(OC)cc3)NC(=N)N(Cc3cccc4ccccc34)C2=O)cc1` [Example 223, 2-imino-5,5-bis(4-methoxyphenyl)-3-(naphthalen-1-ylmethyl)-imidazolidin-4-one] gave a pIC50 of 6.19. Work on `N=C1NC(c2ccccc2)(c2cccc(Oc3ccccc3)c2)C(=O)N1C1CCCCC1` (stereo not shown) [Example 238, 3-cyclohexyl-2-imino-5-(3-phenoxyphenyl)-5-phenylimidazolidin-4-one] yielded a pIC50 of 6.37. Work on `COc1ccc(C2(c3ccc(OC)cc3)NC(=N)N(C3CCC(C)CC3)C2=O)cc1` (stereo not shown) [Example 270, 2-imino-5,5-bis(4-methoxyphenyl)-3-(4-methylcyclohexyl)imidazolidin-4-one] yielded a pIC50 of 6.14. `COc1ccc(C2(c3ccc(OC)cc3)NC(=N)N(Cc3cccc(C)c3)C2=O)cc1` [Example 253, 2-imino-5,5-bis(4-methoxyphenyl)-3-[(3-methylphenyl)-methyl]imidazolidin-4-one] showed a pIC50 of 6.42. With `COc1ccc(C2(c3ccc(OC)cc3)NC(=N)N(C3CCN(Cc4cc(Cl)ccc4O)CC3)C2=O)cc1` [Example 569, 3-(1-(5-chloro-2-hydroxybenzyl)piperidin-4-yl)-2-imino-5,5-bis(4-methoxyphenyl)-imidazolidin-4-one] the pIC50 was 6.35. In the case of `COc1ccc(C2(c3ccc(OC)cc3)NC(=N)N(Cc3cccc(C(F)(F)F)c3)C2=O)cc1` [Example 249, 2-imino-5,5-bis(4-methoxyphenyl)-3-{[3-(trifluoromethyl)-phenyl]methyl} imidazolidin-4-one], the pIC50 was 5.82. Molecule `COc1ccc(C2(c3ccc(OC)cc3)NC(=N)N(Cc3cccc(Cl)c3)C2=O)cc1` [Example 235, 3-[(3-chlorophenyl)-methyl]-2-imino-5,5-bis(4-methoxyphenyl)-imidazolidin-4-one] has a pIC50 of 6.16. Work on `COc1cccc(C2(c3cccc(-c4ccncc4)c3)NC(=N)N(C3CCCCC3)C2=O)c1` (stereo not shown) [Example 225, 3-cyclohexyl-2-imino-5-(3-methoxy-phenyl)-5-[3-(pyridin-4-yl)phenyl]imidazolidin-4-one] yielded a pIC50 of 6.50. For `COc1cc(C2(C3CCCCC3)NC(=N)N(C3CCOCC3)C2=O)ccc1Cl` (stereo not shown) [Example 501, 5-(4-chloro-3-methoxyphenyl)-5-cyclohexyl-2-imino-3-(tetrahydro-2H-pyran-4-yl)imidazolidin-4-one], the pIC50 was 5.81. `COc1cccc(C2(c3cccc(OCc4ccccc4)c3)NC(=N)N(C3CCCCC3)C2=O)c1` (stereo not shown) [Example 230] gave a pIC50 of 6.08. Work on `N#Cc1cccc(-c2cccc(C3(C4CC4)NC(=N)N(C4CCOCC4)C3=O)c2)c1` (stereo not shown) [Example 414, 3′-(4-cyclopropyl-2-imino-5-oxo-1-(tetrahydro-2H-pyran-4-yl)imidazolidin-4-yl)-[1,1′-biphenyl]-3-carbonitrile] yielded a pIC50 of 6.53. `N=C1NC(c2ccc(Cl)cc2)(C2CC2)C(=O)N1C1CCOCC1` (stereo not shown) [Example 496, 5-(4-chlorophenyl)-5-cyclopropyl-2-imino-3-(tetrahydro-2H-pyran-4-yl)imidazolidin-4-one] was tested, and the pIC50 was 6.46. `COc1ccc(C2(c3ccc(OC)cc3)NC(=N)N(Cc3cc(C)ccc3C)C2=O)cc1` [Example 272, 3-[(2,5-dimethylphenyl)-methyl]-2-imino-5,5-bis(4-methoxyphenyl) imidazolidin-4-one] was tested, and the pIC50 was 6.01. For `CC(C)COc1ccc(C2(c3ccc(OCC(C)C)cc3)NC(=N)N(C3CCOCC3)C2=O)cc1` [Example 390, 2-imino-5,5-bis[4-(2-methylpropoxy)phenyl]-3-(oxan-4-yl)imidazolidin-4-one], the pIC50 was 5.39. `COc1ccc(C2(C3CC3)NC(=N)N(C3CCOCC3)C2=O)cc1-c1cccnc1` (stereo not shown) [Example 490, 5-cyclopropyl-2-imino-5-(4-methoxy-3-(pyridin-3-yl)phenyl)-3-(tetrahydro-2H-pyran-4-yl)imidazolidin-4-one] showed a pIC50 of 6.29. In the case of `N=C1NC(c2cccc(O)c2)(C2CC2)C(=O)N1C1CCOCC1` (stereo not shown) [Example 519, 5-cyclopropyl-5-(3-hydroxyphenyl)-2-imino-3-(tetrahydro-2H-pyran-4-yl)imidazolidin-4-one], the pIC50 was 5.25. For `N=C1NC(c2ccc(OC(F)(F)F)cc2)(C2CC2)C(=O)N1C1CCOCC1` (stereo not shown) [Example 494, 5-cyclopropyl-2-imino-3-(tetrahydro-2H-pyran-4-yl)-5-(4-(trifluoromethoxy)phenyl)imidazolidin-4-one], the pIC50 was 6.17. For `N=C1NC(c2ccc(Cl)cc2)(C2CC2)C(=O)N1C1CCCCC1` (stereo not shown) [Example 577, 5-(4-chlorophenyl)-3-cyclohexyl-5-cyclopropyl-2-iminoimidazolidin-4-one], the pIC50 was 5.78. With `COc1ccc(C2(C3CCCC3)NC(=N)N(C3CCCCC3)C2=O)cc1` (stereo not shown) [Example 493, 3-cyclohexyl-5-cyclopentyl-2-imino-5-(4-methoxyphenyl)imidazolidin-4-one] the pIC50 was 6.19. With `COc1ccc(C2(c3ccc(OC)cc3)NC(=N)N(Cc3ccccc3Cl)C2=O)cc1` [Example 234, 3-[(2-chlorophenyl)-methyl]-2-imino-5,5-bis(4-methoxyphenyl)-imidazolidin-4-one] the pIC50 was 6.05. Molecule `COc1cccc(C2(C3CC3)NC(=N)N(C3CCOCC3)C2=O)c1` (stereo not shown) [Example 499, 5-cyclopropyl-2-imino-5-(3-methoxyphenyl)-3-(tetrahydro-2H-pyran-4-yl)imidazolidin-4-one] has a pIC50 of 5.86. Work on `C#Cc1cccc(-c2cccc(C3(C4CC4)NC(=N)N(C4CCOCC4)C3=O)c2)c1` (stereo not shown) [Example 497, 5-cyclopropyl-5-(3′-ethynyl-[1,1′-biphenyl]-3-yl)-2-imino-3-(tetrahydro-2H-pyran-4-yl)imidazolidin-4-one] yielded a pIC50 of 5.94. `COc1ccc(CN2C(=N)NC(c3ccc(OC)cc3)(c3ccc(OC)cc3)C2=O)cc1` [Example 233, 2-imino-5,5-bis(4-methoxyphenyl)-3-[(4-methoxyphenyl)-methyl]imidazolidin-4-one] was tested, and the pIC50 was 6.26. In the case of `N#Cc1cccc(-c2cccc(C3(C4CCCCC4)NC(=N)N(C4CCOCC4)C3=O)c2)c1` (stereo not shown) [Example 492, 3′-(4-cyclohexyl-2-imino-5-oxo-1-(tetrahydro-2H-pyran-4-yl)imidazolidin-4-yl)-[1,1′-biphenyl]-3-carbonitrile], the pIC50 was 5.95. `N=C1NC(c2cccc(-c3cncc(Cl)c3)c2)(C2CC2)C(=O)N1C1CCCCC1` (stereo not shown) [Example 514, 5-(3-(5-chloropyridin-3-yl)phenyl)-3-cyclohexyl-5-cyclopropyl-2-iminoimidazolidin-4-one] gave a pIC50 of 6.01. Molecule `N=C1NC(c2ccc(O)cc2)(C2CC2)C(=O)N1C1CCCCC1` (stereo not shown) [Example 551, 3-cyclohexyl-5-cyclopropyl-5-(4-hydroxyphenyl)-2-iminoimidazolidin-4-one] has a pIC50 of 6.11. `N=C1NC(c2cccc(-c3cccnc3)c2)(c2cccc(-c3cccnc3)c2)C(=O)N1C1CCCCC1` [Example 269, 3-cyclohexyl-2-imino-5,5-bis[3-(pyridin-3-yl)phenyl]imidazolidin-4-one] was tested, and the pIC50 was 6.14. `N=C1NC(c2cccc(Oc3ccccc3)c2)(C2CC2)C(=O)N1C1CCCCC1` (stereo not shown) [Example 570, 3-cyclohexyl-5-cyclopropyl-2-imino-5-(3-phenoxyphenyl)imidazolidin-4-one] gave a pIC50 of 5.54. In the case of `N=C1NC(c2ccc(F)c(F)c2)(C2CC2)C(=O)N1C1CCOCC1` (stereo not shown) [Example 498, 5-cyclopropyl-5-(3,4-difluorophenyl)-2-imino-3-(tetrahydro-2H-pyran-4-yl)imidazolidin-4-one], the pIC50 was 5.89. `N=C1NC(c2ccc(O)cc2)(c2ccc(O)cc2)C(=O)N1C1CCCCC1` [Example 547, 3-cyclohexyl-5,5-bis(4-hydroxyphenyl)-2-iminoimidazolidin-4-one] showed a pIC50 of 6.07.

Same assay, conditions: 3D7, read-out: 3D7 IC50 (μM), Table 13
`N=C1NC(c2cccc(-c3cccnc3)c2)(C2CC2)C(=O)N1C1CCCCC1` (stereo not shown) [Example 512, 3-cyclohexyl-5-cyclopropyl-2-imino-5-(3-(pyridin-3-yl)phenyl)imidazolidin-4-one] showed an IC50 of 0.38 µM.

Same assay, conditions: 3D7, read-out: Pf3D7 IC50 (μM), Table 10
`CCC(CN1C(=N)NC(c2ccccc2)(c2ccccc2)C1=O)c1ccccc1` (stereo not shown) [drawing 195] gave an IC50 of 2.76 µM.
